Series [1] is described as follows: Plasma KBU2046 concentration after dosing in chow. It counts as in vivo, athymic mice. The conditions noted are these: Balb/c athymic, mouse, oral. Here is the method: Cohorts of N=12 athymic mice bearing human PCa PC3-M cell orthotopic implants (a), or of N=5 non-tumor bearing athymic mice (b), were treated with KBU2046 incorporated into chow, and resultant lung metastasis (a) or plasma KBU2046 concentration (b) measured. Values are the mean±SEM. The relationship between dose and metastasis was evaluated by two-sided ANOVA (a). FIG. 2c a comprehensive characterization of KBU2046 pharmacokinetics. CD1 mice were dosed with 100 mg KBU2046/kg via oral gavage or intravenous injection (iv), and blood collected at the indicated time points (data from mice dosed at 25 mg/kg are in FIG. 12, and corroborate 100 mg/kg findings). For each route and time point, N=3 mice were sampled. Individual data points are the resultant plasma concentrations from individual mice, and are the mean of N=2 measurements. The dotted horizontal line denotes a concentration of 24 nM, which was the concentration of KBU2046 measured in the blood of mice whose metastasis were suppressed by 92% (a-b). […]
KBU2046 Quantification and Pharmacokinetics. […]
Plasma KBU2046 concentrations were measured in duplicate by liquid chromatography-tandem mass spectrometry after sample preparation by solid-phase extraction. […] The mass-to-charge ratios of the precursor-to-product ion reactions monitored were 243.5→125.1 for KBU2046 and 257.0→165.0 for the internal standard. […]

The subject of the next series is PC3 or PC3M cells. The series is described as follows: Scratch wound healing assay with siRNA knockdown. It counts as cell-based, human. On the procedure: HEK293T cells were transfected with 1 of 420 different protein kinases, treated with 10 μM KBU2046 (N=5 replicates) or vehicle control (N=5) for three days, and LUMIER assays performed. The N=17 kinases that gave significant findings (Student's t-test <0.05) in the same direction in each of two separate experiments are depicted. Each separate treatment and kinase condition in each of two separate experiments was conducted in replicates of N=5. […] FIGS. 6c and 6d show the results of the wound healing assay. PC3 cells were transfected with siRNA targeting RAF1 (si-Raf1) or non-targeting siRNA (si-control), treated with KBU2046 or vehicle as above, and RAF1 protein measured by Western blot (c) and effects upon wound healing measured (d). […] Purified recombinant HSP90β, CDC37, and RAF1 were combined with KBU2046, as indicated, incubated in an in vitro kinase assay for the indicated times, and Western blot for RAF1-Ser^338 phosphorylation performed. FIGS. 6f and 6g show the effect on HSP90β/CDC37 heterocomplex formation and function in vitro. Purified recombinant HSP90β, CDC37, RAF1, SGK3 or MAP3K6 were combined and treated with KBU2046 or vehicle control, as indicated, incubated in an in vitro kinase assay for the indicated times, and Western blot performed, as denoted. Experiments were repeated at separate times at least once, with similar results.
FIGS. 24b-d show the results of the wound healing assay. PC3 or PC3M cells were treated+/−KBU2046 and with siRNA to the denoted gene, or with non-targeting control siRNA (NT), and effects upon transcript (b) or protein expression (c) measured by qRT/PCR or Western blot, respectively. For qRT/PCR, values are expressed as the target gene/GAPDH ratio, normalized to that of NT/−KBU2046 cells. Under the same conditions, wound healing assays were performed (d).
Scratch Wound Assays. Cells were transfected with the indicated si-RNA constructs per manufacture protocol (GE-Dharmacon), cultured 48 hrs with 10 μM KBU2046 or vehicle, and scratch wound assay performed as described (Xiao, X. et al., Oncotarget 6, 3225-39 (2015)). […]

Molecules are shown by their SMILES. Where two headings read alike, the source gives them in different places.

For `O=C1c2ccccc2OCC1c1ccc(F)cc1` (racemic) [KBU2046, (±)-3(4-fluorophenyl)chroman-4-one], the concentration at 35 days was 1.1 to 24 nM in series [1] (doses that decreased metastasis, read-out: plasma concentrations) and 24 nM in series [1] (read-out: concentration in blood of mice whose metastasis were suppressed by 92%). Further, the efficacy on motility entry in the series with PC3 or PC3M cells (SGK3 knockdown) was “still retained efficacy”; in the series with PC3 or PC3M cells (knockdown of RAF1 or of RIPK1) it was “mitigated KBU2046 efficacy”. Also, the “RAF1 protein expression levels” value in the series with PC3 or PC3M cells (Western blot, cells) is “did not alter RAF1 protein expression levels”.

For the origin of these results see patent US20210293825A1, “METHODS FOR PRECISION THERAPEUTIC TARGETING OF HUMAN CANCER CELL MOTILITY AND KITS THEREOF” (UNITED STATES GOVERNMENT AS REPRESENTED BY THE DEPARTMENT …, priority 2018, published 2021).
